From PubChem BioAssay (NCI)
Values joined by “and” are separate entries in the source; they are usually repeats but may differ in a detail not shown here. Equal values may be shown once.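 Method: 48-hour compound exposure of cells in 96-well plates, five concentrations, linear interpolation of endpoints. GI50 marks 50% less growth. TGI marks complete inhibition of growth.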

Tests used:
Assay in all cases: DTP human tumour cell line panel, 48 h
OVCAR-5 ovarian = test system: OVCAR-5 ovarian
HT29 colon = test system: HT29 colon
SK-MEL-5 melanoma = test system: SK-MEL-5 melanoma
UACC-62 melanoma = test system: UACC-62 melanoma
HOP-92 NSCLC = test system: HOP-92 NSCLC
SF-268 CNS = test system: SF-268 CNS
HOP-62 NSCLC = test system: HOP-62 NSCLC
CCRF-CEM leukemia = test system: CCRF-CEM leukemia
UACC-257 melanoma = test system: UACC-257 melanoma
HS 578T breast = test system: HS 578T breast

SMILES | GI50 (OVCAR-5 ovarian) | TGI (OVCAR-5 ovarian) | GI50 (HT29 colon) | TGI (HT29 colon) [µM] | GI50 (SK-MEL-5 melanoma) | TGI (SK-MEL-5 melanoma) | GI50 (UACC-62 melanoma) | TGI (UACC-62 melanoma) | GI50 (HOP-92 NSCLC) | TGI (HOP-92 NSCLC) | GI50 (SF-268 CNS) | TGI (SF-268 CNS) | GI50 (HOP-62 NSCLC) | TGI (HOP-62 NSCLC) | GI50 (CCRF-CEM leukemia) | TGI (CCRF-CEM leukemia) [µM] | GI50 (UACC-257 melanoma) | TGI (UACC-257 melanoma) | GI50 (HS 578T breast) | TGI (HS 578T breast)
Cn1cc(-c2ccc3c(Nc4cccc(NC(=O)Nc5cccc(F)c5)c4)ncnc3c2)cn1 | 10.3 µM | 22 µM | 1.97 µM | 12.6 | 1.53 µM | 2.94 µM | 3.21 µM | 15 µM | 2.23 µM | 9.08 µM | 1.64 µM | 11.2 µM | 1.84 µM | 14.9 µM | 0.0474 µM | 13.7 | 4.5 µM | 22.5 µM | 1.5 µM | 9.79 µM
COc1cc(C2c3[nH]c4ccccc4c3C[C@H]3COC(=O)N23)cc(OC)c1OC (stereo partly specified) | – | – | < 0.01 µM | > 100 | < 0.01 µM | – | < 0.01 µM | > 100 µM | 0.0184 µM | > 100 µM | < 0.01 µM | > 100 µM | < 0.01 µM | – | – | 0.0789 | < 0.01 µM | > 100 µM | – | 0.0814 µM
COc1cc2c(cc1O)CC[C@@H]1[C@@H]2CC[C@]2(C)[C@@H](NCCN(C)C)CC[C@@H]12 | 0.314 µM | 0.856 µM | 0.101 µM | 0.393 | 0.0694 µM | 0.166 µM | 0.0994 µM | 0.274 µM | 0.124 µM | 0.742 µM | 0.267 µM | 0.753 µM | 0.194 µM | 0.717 µM | 0.156 µM | 0.612 | 0.114 µM | 0.254 µM | 0.277 µM | 1.1 µM
Cc1c(N2CCCC2)cc2c(c1NC(=O)c1ccccc1Cl)C(C)(C)CC2(C)C | – | 32.2 µM | – | 29.4 | – | 33.7 µM | – | 23.2 µM | – | 24 µM | – | 30.6 µM | – | 28.4 µM | – | – | – | 24.1 µM | – | 38.4 µM
CC[C@]1(O)CC(OC2CC(N(C)C)C(O)C(C)O2)c2c(cc3c(c2O)C(=O)c2c(O)cccc2C3=O)[C@@H]1C(=O)OC (stereo partly specified) | – | 13.9 µM | – | 5.09 | – | 0.941 µM | – | 0.904 µM | – | 1.51 µM | – | 2.2 µM | – | 2.14 µM | – | 3.39 | – | 1.88 µM | – | 4.21 µM
CCCCCCCCCCCCNC(C)=O | – | – | – | 33.6 | – | 30.4 µM | – | 30.2 µM | – | 19.2 µM | – | 29.5 µM | – | 28.9 µM | – | 32.7 | – | 63.9 µM | – | 31.1 µM
CN(Cc1cnc2nc(N)nc(N)c2n1)c1ccc(C(=O)NC(CCC(=O)O)C(=O)O)cc1C(F)(F)F (stereo unspecified) | – | > 100 µM | – | > 100 | – | > 100 µM | – | – | – | > 100 µM | – | > 100 µM | – | > 100 µM | – | 0.486 | – | > 100 µM | – | > 100 µM
C/C(=N\NC(=O)c1sc(=S)n(C)c1N)c1cc2ccccc2o1 | 16.4 µM | 48.2 µM | 5.05 µM | 18.9 | 10.8 µM | 30.1 µM | 18.5 µM | 61.8 µM | 10.3 µM | 25.4 µM | 14.4 µM | 37.4 µM | 13.3 µM | 27.2 µM | 10.6 µM | 31 | 12.8 µM | 33.4 µM | 11.7 µM | 31.2 µM
CCOC(=O)c1c2c(c(O)c3ccccc3c(O)n(Cc3ccc(OC)cc3)c1C)C(=O)C=CC2=O | > 100 µM | > 100 µM | > 100 µM | > 100 | > 100 µM | > 100 µM | > 100 µM | > 100 µM | > 100 µM | > 100 µM | > 100 µM | > 100 µM | > 100 µM | > 100 µM | – | – | > 100 µM | > 100 µM | > 100 µM | > 100 µM
COC(=O)CCC(=O)C(=O)OC | 26100 µM | – | 24200 µM | 85900 | 94300 µM | – | 13600 µM | 51100 µM | 19300 µM | 82200 µM | 26400 µM | – | 23700 µM | – | 17800 µM | 85500 | 30800 µM | – | 26600 µM | 97100 µM
CCCCON(OC(=O)c1ccccc1)C(=O)c1ccccc1 | > 100 µM | > 100 µM | > 100 µM | > 100 | > 100 µM | > 100 µM | > 100 µM | > 100 µM | > 100 µM | > 100 µM | > 100 µM | > 100 µM | > 100 µM | > 100 µM | 49.8 µM | > 100 | > 100 µM | > 100 µM | > 100 µM | > 100 µM
CC(C)[C@]12O[C@H]1[C@@H]1O[C@]13[C@]1(O[C@H]1C[C@H]1C4=C(CC[C@@]13C)C(=O)OC4)[C@@H]2O | 0.0325 µM and 0.0282 µM | > 100 µM | 0.029 µM | > 100 | 0.0131 µM | 0.0213 µM and 0.0265 µM | 0.011 µM | 0.0241 µM and 0.026 µM | 0.0201 µM | 0.107 µM and 0.0808 µM | – | 0.241 µM and 0.218 µM | 0.0248 µM | – | 0.0255 µM | 0.297 | 0.0101 µM and 0.0148 µM | 0.0341 µM and 0.0476 µM | – | 0.0554 µM and 0.0718 µM
O=C[C@@H](CO)O[C@H](C=O)c1c[nH]c(=O)[nH]c1=O | – | 379 µM | – | 595 | – | 309 µM | – | 219 µM | – | 237 µM | – | 427 µM | – | 258 µM | – | 973 | – | 657 µM | – | 402 µM
CCc1nc(N)nc(N)c1-c1ccc(NCCN)c([N+](=O)[O-])c1 | – | > 100 µM | – | > 100 | – | 40 µM | – | > 100 µM | – | > 100 µM | – | > 76.3 µM | – | 75.8 µM | – | > 72.4 | – | 72.9 µM | – | > 100 µM
C[C@@H]1COCCN1c1cc(C2([S@](C)(=N)=O)CC2)nc(-c2ccnc3[nH]ccc23)n1 | 5.03 µM and 6.98 µM | 99.8 µM and > 10 µM | 4.27 µM and 4.99 µM | > 100 | 3.6 µM and 3.87 µM | 15.7 µM and > 10 µM | 2.34 µM and 1.76 µM | 16.6 µM and > 10 µM | 1.34 µM and 1.14 µM | 14 µM and 8.77 µM | 7.1 µM and > 10 µM | > 100 µM | 2.86 µM and 1.75 µM | 52.1 µM and > 10 µM | 1.21 µM and 1.11 µM | > 29 | 14 µM and > 10 µM | 74 µM and > 10 µM | 2.93 µM and 3.72 µM | 29.6 µM and > 10 µM
OC(c1cccc(-n2ccc(C(F)(F)F)n2)c1)c1cnccc1NC1CCCCCC1 (stereo unspecified) | 1.64 µM | 3.01 µM | 1.8 µM | 4.33 | 1.73 µM | 3.18 µM | 1.74 µM | 3.14 µM | 1.21 µM | 2.53 µM | 1.69 µM | 3.25 µM | 1.95 µM | 3.84 µM | 2.35 µM | 6.04 | 1.86 µM | 3.76 µM | 1.64 µM | 3.69 µM
